Source: patent publication US11802131B2, “Glutarimides for medical treatment” (C4 Therapeutics, Inc., priority 2017, dated 2023)

biological target: hCereblon(M1-L442)_hDDB1(M1-H1140) (Homo sapiens (Human), UniProt Q96SW2); test: Fluorescence direct binding protocol (tryptophan fluorescence titration); details: 20° C., excited at 280 nm, recorded at 340 nm, assay buffer 50 mM Hepes 7.4 200 mM NaCl; read-out: Fluorescence h-Cereblon_DDB1 Mean Kd_EQ
Protocol: Fluorescence Direct Binding Protocol
Determination of the affinities of compounds to protein containing one or more tryptophan is measurable by monitoring the fluorescence emission in direct mode. The measurements depending on the protein available amounts are performed either manually in a cuvette on ISS-PC1 photon counting spectrofluorometer or automatically in well plates on a fluorescence plate reader device. Fluorescence titrations are performed at 20° C. in the chosen binding assay buffer by using a defined constant protein concentration against ligand concentration variations. Small aliquots of known ligand concentration solubilized in DMSO were added and the fluorescence, excited at 280 nm, was recorded at 340 nm. The fluorescence intensity was corrected for protein dilution and for the filter effect (Birdsall et al.^72).
1) Optimization of measurement parameters to minimize protein consumption and to minimize the dilution effect and the DMSO content
2) Titration measurements of the protein against ligand by at least 12 titration steps to obtain a good s-curve fit
3) Repeat the same titration measurements with the ligand alone to enable correction
4) Check the stability of the protein once by titration against DMSO alone
5) Determination of the molar extinction coefficients of the ligand at 280 and 340 nm with help of an UV-spectrophotometer
6) Use Excel template for the correction of the measured raw data
7) Use GraphPad Prism software for the quadratic binding fit and the KD evaluation.

hCereblon(M1-L442)_hDDB1(M1-H1140), sequence (Q96SW2 whole entry): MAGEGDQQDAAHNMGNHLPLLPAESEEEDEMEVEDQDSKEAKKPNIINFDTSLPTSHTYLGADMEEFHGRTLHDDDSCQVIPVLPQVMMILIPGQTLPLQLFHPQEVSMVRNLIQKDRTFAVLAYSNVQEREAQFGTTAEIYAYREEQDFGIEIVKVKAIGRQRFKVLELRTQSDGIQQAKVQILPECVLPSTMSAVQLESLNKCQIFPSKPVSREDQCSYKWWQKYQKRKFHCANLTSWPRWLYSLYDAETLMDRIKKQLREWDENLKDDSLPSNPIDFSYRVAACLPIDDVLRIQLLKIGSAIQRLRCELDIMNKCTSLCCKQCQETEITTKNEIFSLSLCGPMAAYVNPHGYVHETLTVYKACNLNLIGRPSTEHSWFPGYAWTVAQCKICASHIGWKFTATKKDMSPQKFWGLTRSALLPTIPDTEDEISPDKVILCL
hCereblon(M1-L442)_hDDB1(M1-H1140), sequence (Q16531 whole entry partner): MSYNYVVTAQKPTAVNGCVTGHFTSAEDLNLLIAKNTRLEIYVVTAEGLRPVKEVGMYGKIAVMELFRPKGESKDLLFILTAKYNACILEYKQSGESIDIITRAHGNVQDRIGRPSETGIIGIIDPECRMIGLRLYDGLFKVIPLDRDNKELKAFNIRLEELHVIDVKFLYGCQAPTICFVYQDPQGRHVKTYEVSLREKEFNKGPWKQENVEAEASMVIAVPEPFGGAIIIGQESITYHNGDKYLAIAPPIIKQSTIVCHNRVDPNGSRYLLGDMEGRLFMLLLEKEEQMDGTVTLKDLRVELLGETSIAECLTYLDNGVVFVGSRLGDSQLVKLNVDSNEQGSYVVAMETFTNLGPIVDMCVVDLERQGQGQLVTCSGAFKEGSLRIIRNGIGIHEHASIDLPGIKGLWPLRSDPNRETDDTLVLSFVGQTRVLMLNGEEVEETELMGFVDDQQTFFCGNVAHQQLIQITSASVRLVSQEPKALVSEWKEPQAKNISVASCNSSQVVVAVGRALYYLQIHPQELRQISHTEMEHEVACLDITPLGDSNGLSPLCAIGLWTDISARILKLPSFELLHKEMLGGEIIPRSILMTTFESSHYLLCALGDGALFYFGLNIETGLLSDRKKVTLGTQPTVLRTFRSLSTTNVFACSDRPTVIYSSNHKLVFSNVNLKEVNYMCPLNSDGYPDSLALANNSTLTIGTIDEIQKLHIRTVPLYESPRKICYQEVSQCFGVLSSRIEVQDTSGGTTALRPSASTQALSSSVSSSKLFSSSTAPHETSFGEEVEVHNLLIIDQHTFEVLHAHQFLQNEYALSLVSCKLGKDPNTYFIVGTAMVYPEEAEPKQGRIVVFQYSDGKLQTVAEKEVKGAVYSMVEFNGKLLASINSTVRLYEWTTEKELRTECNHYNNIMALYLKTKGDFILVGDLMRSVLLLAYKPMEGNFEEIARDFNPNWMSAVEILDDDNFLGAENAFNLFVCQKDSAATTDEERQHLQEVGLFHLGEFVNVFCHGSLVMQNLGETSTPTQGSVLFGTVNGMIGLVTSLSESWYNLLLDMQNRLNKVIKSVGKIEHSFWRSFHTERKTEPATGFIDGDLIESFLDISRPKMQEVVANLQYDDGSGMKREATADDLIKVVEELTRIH

Compound | Kd [nM]
O=C1CC[C@@H](NC(=O)[C@@H]2CCCc3ccccc32)C(=O)N1 [Example 45, (1R)-N-[(3R)-2,6-Dioxopiperidin-3-yl]-1,2,3,4-tetrahydronaphthalene-1-carboxamide] | 4
O=C1CC[C@H](NC(=O)[C@@H]2CCCc3ccccc32)C(=O)N1 [Example 46, (1R)-N-[(3S)-2,6-Dioxopiperidin-3-yl]-1,2,3,4-tetrahydronaphthalene-1-carboxamide] | 39
O=C1CC[C@H](NC(=O)c2cnn3ccccc23)C(=O)N1 [Example 47, (S)-N-(2,6-Dioxopiperidin-3-yl)pyrazolo[1,5-a]pyridine-3-carboxamide] | < 1
O=C1CC[C@@H](NC(=O)c2cnn3ccccc23)C(=O)N1 [Example 48, (R)-N-(2,6-Dioxopiperidin-3-yl)pyrazolo[1,5-a]pyridine-3-carboxamide] | < 1
O=C1CC[C@@H](NC(=O)c2n[nH]c3ccccc23)C(=O)N1 [Example 49, (R)-N-(2,6-Dioxopiperidin-3-yl)-1H-indazole-3-carboxamide] | < 1
O=C1CC[C@H](NC(=O)c2ncc3ccccn23)C(=O)N1 [Example 50, (S)-N-(2,6-Dioxopiperidin-3-yl)imidazo[1,5-a]pyridine-3-carboxamide] | 4
O=C1CC[C@@H](NC(=O)c2ncc3ccccn23)C(=O)N1 [Example 51, (R)-N-(2,6-Dioxopiperidin-3-yl)imidazo[1,5-a]pyridine-3-carboxamide] | 3
O=C1CC[C@H](NC(=O)c2ccc3ccccn23)C(=O)N1 [Example 52, (S)-N-(2,6-Dioxopiperidin-3-yl)indolizine-3-carboxamide] | 6
O=C1CC[C@@H](NC(=O)c2ccc3ccccn23)C(=O)N1 [Example 53, (R)-N-(2,6-Dioxopiperidin-3-yl)indolizine-3-carboxamide] | 2
O=C1CC[C@H](NC(=O)c2cnc3ccccn23)C(=O)N1 [Example 54, (S)-N-(2,6-Dioxopiperidin-3-yl)imidazo[1,2-a]pyridine-3-carboxamide] | 1
O=C1CC[C@@H](NC(=O)c2cnc3ccccn23)C(=O)N1 [Example 55, (R)-N-(2,6-Dioxopiperidin-3-yl)imidazo[1,2-a]pyridine-3-carboxamide] | < 1
O=C1CC[C@H](NC(=O)c2cnn3cccnc23)C(=O)N1 [Example 56, (S)-N-(2,6-Dioxopiperidin-3-yl)pyrazolo[1,5-a]pyrimidine-3-carboxamide] | 8
O=C1CC[C@@H](NC(=O)c2cnn3cccnc23)C(=O)N1 [Example 57, (R)-N-(2,6-Dioxopiperidin-3-yl)pyrazolo[1,5-a]pyrimidine-3-carboxamide] | 7
CN(C(=O)N1CCc2ccccc21)C1CCC(=O)NC1=O (centres unmarked) [Example 58, N-(2,6-Dioxopiperidin-3-yl)-N-methylindoline-1-carboxamide] | 22
CN(C(=O)N1CCc2ccccc21)[C@H]1CCC(=O)NC1=O [Example 59, (S)-N-(2,6-Dioxopiperidin-3-yl)-N-methylindoline-1-carboxamide] | 20
CN(C(=O)N1CCc2ccccc21)[C@@H]1CCC(=O)NC1=O [Example 60, (R)-N-(2,6-Dioxopiperidin-3-yl)-N-methylindoline-1-carboxamide] | 30

Compound | Kd [nM]
O=C1CC[C@H](NC(=O)Cc2cccnc2)C(=O)N1 [Example 61, (S)-N-(2,6-Dioxopiperidin-3-yl)-2-(pyridin-3-yl)acetamide] | 967
CN(C(=O)N1CCc2cccnc21)C1CCC(=O)NC1=O (centres unmarked) [Example 62, N-(2,6-Dioxopiperidin-3-yl)-N-methyl-2,3-dihydro-1H-pyrrolo[2,3-b]pyridine-1-carboxamide] | 29
O=C1CC[C@@H](NC(=O)Cc2cccnc2)C(=O)N1 [Example 63, (R)-N-(2,6-Dioxopiperidin-3-yl)-2-(pyridin-3-yl)acetamide] | 19
O=C1CC[C@@H](NC(=O)N2CCCc3cccnc32)C(=O)N1 [Example 64, (R)-N-(2,6-Dioxopiperidin-3-yl)-3,4-dihydro-1,8-naphthyridine-1(2H)-carboxamide] | 641
CC(=O)Nc1ccc(CC(=O)N[C@H]2CCC(=O)NC2=O)cc1 [Example 65, (S)-2-(4-Acetamidophenyl)-N-(2,6-dioxopiperidin-3-yl)acetamide] | 23
CC(=O)Nc1ccc(CC(=O)N[C@@H]2CCC(=O)NC2=O)cc1 [Example 66, (R)-2-(4-Acetamidophenyl)-N-(2,6-dioxopiperidin-3-yl)acetamide] | 86
CC(=O)Nc1cccc(CC(=O)N[C@@H]2CCC(=O)NC2=O)c1 [Example 67, (R)-2-(3-Acetamidophenyl)-N-(2,6-dioxopiperidin-3-yl)acetamide] | 3
CC(=O)Nc1cccc(CC(=O)N[C@H]2CCC(=O)NC2=O)c1 [Example 68, (S)-2-(3-Acetamidophenyl)-N-(2,6-dioxopiperidin-3-yl)acetamide] | 60
O=C1CC[C@H](NC(=O)Cc2ccc3c(c2)CC(=O)N3)C(=O)N1 [Example 69, (S)-N-(2,6-Dioxopiperidin-3-yl)-2-(2-oxoindolin-5-yl)acetamide] | 15
O=C1CC[C@@H](NC(=O)Cc2ccc3c(c2)CC(=O)N3)C(=O)N1 [Example 70, (R)-N-(2,6-Dioxopiperidin-3-yl)-2-(2-oxoindolin-5-yl)acetamide] | 3
Cn1nc(C(=O)N[C@H]2CCC(=O)NC2=O)c2c1CCN(C(=O)OC(C)(C)C)C2 [Example 71, tert-Butyl (S)-3-((2,6-dioxopiperidin-3-yl)carbamoyl)-1-methyl-1,4,6,7-tetrahydro-5H-pyrazolo[4,3-c]pyridine-5-carboxylate] | 4
Cn1nc(C(=O)N[C@H]2CCC(=O)NC2=O)c2c1CCNC2 [Example 72, (S)-N-(2,6-Dioxopiperidin-3-yl)-1-methyl-4,5,6,7-tetrahydro-1H-pyrazolo[4,3-c]pyridine-3-carboxamide] | 194
CN1C(=O)CCC(NC(=O)[C@H]2CCCc3ccccc32)C1=O (stereo partly drawn) [Example 73, (1S)-N-(1-Methyl-2,6-dioxopiperidin-3-yl)-1,2,3,4-tetrahydronaphthalene-1-carboxamide] | 28
Cc1sc2c(c1C)C(c1ccc(Cl)cc1)=N[C@@H](CC(=O)NCCCCCC(=O)N1CC[C@H](C(=O)N[C@H]3CCC(=O)NC3=O)c3ccccc31)c1nnc(C)n1-2 [Example A, (4S)-1-[6-[[2-[(9S)-7-(4-Chlorophenyl)-4,5,13-trimethyl-3-thia-1,8,11,12-tetrazatricyclo[8.3.0.02,6]trideca-2(6),4,7,10,12-pentaen-9-yl]acetyl]amino]hexanoyl]-N-[(3S)-2,6-dioxo-3-piperidyl]-3,4-dihydro-2H-quinoline-4-carboxamide] | 10
Cc1sc2c(c1C)C(c1ccc(Cl)cc1)=N[C@@H](CC(=O)NCCCCCC(=O)N1CC[C@H](C(=O)N[C@@H]3CCC(=O)NC3=O)c3ccccc31)c1nnc(C)n1-2 [Example B, (4S)-1-[6-[[2-[(9S)-7-(4-Chlorophenyl)-4,5,13-trimethyl-3-thia-1,8,11,12-tetrazatricyclo[8.3.0.02,6]trideca-2(6),4,7,10,12-pentaen-9-yl]acetyl]amino]hexanoyl]-N-[(3R)-2,6-dioxo-3-piperidyl]-3,4-dihydro-2H-quinoline-4-carboxamide] | 37
Cc1sc2c(c1C)C(c1ccc(Cl)cc1)=N[C@@H](CC(=O)NCCOCCOCCOCC(=O)N1CC[C@@H](C(=O)N[C@H]3CCC(=O)NC3=O)c3ccccc31)c1nnc(C)n1-2 [Example C, (4R)-1-[2-[2-[2-[2-[[2-[(9S)-7-(4-Chlorophenyl)-4,5,13-trimethyl-3-thia-1,8,11,12-tetrazatricyclo[8.3.0.02,6]trideca-2(6),4,7,10,12-pentaen-9-yl]acetyl]amino]ethoxy]ethoxy]ethoxy]acetyl]-N-[(3S)-2,6-dioxo-3-piperidyl]-3,4-dihydro-2H-quinoline-4-carboxamide] | 8
